Patent US20050158721A1, “Tissue rejection” (priority 2002, published 2005)

How the values were obtained:
[1] = patients treated after cadaveric renal transplantation; result not always reproducible; cited from earlier work
[2] = test system: primary human tubular epithelial cell (HTEC); test: SA β Gal staining at pH6 in primary tubular epithelial cultures as a measure of senescence, with or without H2O2; type: cell-based; details: 10 ng/ml tacrolimus (FK); cells challenged with oxidant H2O2 (75 μM); FIG. 3
Method: HTEC culture. Primary HTEC cultures were grown at 37° C. 5% CO2 in DMEM/Glutamax-1/+ pyridoxine medium (Life technologies) plus […] ml^−1 Penstrep. Cells were stained for SA β Gal activity as described in Joosten et al 2003.
Building upon the rodent observations, the inventor has established a primary human tubular epithelial cell (HTEC) in vitro system to model and evaluate premature human renal senescence. […] This is shown in FIG. 3, which illustrates SA β Gal staining at pH6 in primary tubular epithelial cultures as a measure of senescence.
Cultures were grown ±100 ng/ml cyclosporin (cyc) or 10 ng/ml tacrolimus (FK) and evaluated with or without oxidising 75 μM H2O2 treatment.
This has profound implications for transplant outcome and current clinical practice.

Row | Molecule | 1 and 4 year graft survival rate [1] | first acute rejection episodes [1] | effect on oxidant stress, judged by SA β Gal staining at pH6 [2]
1 | superoxide dismutase | significantly improved | reduction | –
2 | C=CC[C@@H]1/C=C(\C)C[C@H](C)C[C@H](OC)[C@H]2O[C@@](O)(C(=O)C(=O)N3CCCC[C@H]3C(=O)O[C@H](/C(C)=C/[C@@H]3CC[C@@H](O)[C@H](OC)C3)[C@H](C)[C@@H](O)CC1=O)[C@H](C)C[C@@H]2OC [tacrolimus] | – | – | protect against the effects of oxidant stress
